Reference: ChEMBL document CHEMBL3588748, “Original 2-(3-Alkoxy-1H-pyrazol-1-yl)azines Inhibitors of Human Dihydroorotate Dehydrogenase (DHODH)” (J Med Chem, 2015)
Active and inactive are the calls of the source. No rule for the calls is given here.

Assays:
[1] = system: Plasmodium falciparum; test: Antiplasmodial activity against Plasmodium falciparum 3D7 assessed as inhibition of parasite growth at 8.66 ug/ml by SYBR Green I dye based assay; type: functional, organism-based
[2] = system: Measles morbillivirus
Description: Antiviral activity against measles virus rMV2/Luc infected in HEK-293T cells assessed as inhibition of virus growth incubated for 24 hrs by firefly luciferase reporter gene assay

SMILES | growth inhibition (GI) [1] | pMIC50 [2]
CCOc1nn(-c2ccc(OC)cn2)c(C)c1Cc1ccccc1 | inactive | 5.5
Cc1c(Oc2c(F)cccc2F)c(OC(C)C)nn1-c1ncc(C2CC2)cc1OCc1ccccc1 | inactive | 7
Cc1c(Oc2cc(F)ccc2F)c(OC(C)C)nn1-c1ccc(C2CC2)cn1 | inactive | 7.4
CCOc1nn(-c2ccc(C3CC3)nn2)c(C)c1Oc1ccc(C(F)(F)F)cc1 | inactive | 5.2
CCOc1nn(-c2ncc(Br)cc2C)c(C)c1Cc1ccccc1 | inactive | <5
Cc1ccc(-n2nc(OC(C)C)c(Oc3c(F)cccc3F)c2C)cn1 | inactive | –
Cc1c(Oc2ccc(F)cc2)c(OC(C)C)nn1-c1ccc(C2CC2)cn1 [IPP/CNRS-A019] | inactive | 5.9
CCc1nnc(-n2nc(OC(C)C)c(Oc3c(F)cccc3F)c2C)nc1O | inactive | 7.6
Cc1c(Oc2ccccc2F)c(OC(C)C)nn1-c1ccc(C2CC2)nn1 | inactive | 7.4
CCOc1nn(-c2ncccc2C)c(C)c1Cc1ccccc1 | inactive | <5
Cc1c(Oc2c(F)cccc2F)c(OC(C)C)nn1-c1ccccn1 | inactive | <5
Cc1c(Oc2c(F)cccc2F)c(OC(C)C)nn1-c1cnc(C2CC2)cn1 | inactive | –
Cc1c(Oc2ccc(F)cc2F)c(OC(C)C)nn1-c1ccc(C2CC2)cn1 | inactive | 6.5
COc1ccc(-n2nc(OC(C)C)c(Oc3c(F)cccc3F)c2C)nc1 | inactive | 7.3
CCOc1nn(-c2ccccn2)c(C)c1Cc1ccccc1 | inactive | <5
CCOc1nn(-c2ccc(C3CC3)nn2)c(C)c1Oc1ccccc1C(F)(F)F | inactive | 6.8
Cc1c(Oc2c(F)cccc2F)c(OC(C)C)nn1-c1ccc(C(F)(F)F)cn1 | inactive | 6.5
CCOc1nn(-c2ccc(C3CC3)cn2)c(C)c1Oc1cccc(Cl)c1Cl | inactive | 7.9
CCOc1nn(-c2cc(C)ccn2)c(C)c1Cc1ccccc1 | inactive | 5.4
CCc1cnc(-n2nc(OC(C)C)c(Oc3c(F)cccc3F)c2C)c(F)c1 | inactive | 7.1
CCOc1nn(-c2ccc(C3CC3)nn2)c(C)c1Oc1ccccc1Cl | inactive | 7.1
CCOc1nn(-c2ccc(C3CC3)nn2)c(C)c1Oc1cccc(C(F)(F)F)c1 | inactive | 6.4
Cc1c(Oc2c(F)cccc2F)c(OC(C)C)nn1-c1cnc(C2CC2)nc1 | inactive | 6.8
Cc1c(Oc2c(F)cccc2F)c(OC(C)C)nn1-c1ncc(C2CC2)cc1N(C)C | inactive | 7.5
Cc1c(Oc2c(F)cccc2F)c(OC(C)C)nn1-c1cnc(C(F)(F)F)cn1 | inactive | 5.3
CCOc1nn(-c2ccc(C#N)cn2)c(C)c1Cc1ccccc1 | inactive | <5

SMILES | growth inhibition (GI) [1] | pMIC50 [2]
CCOc1nn(-c2ccc(Cl)cn2)c(C)c1Cc1ccccc1 | inactive | 5.5
CCOc1nn(-c2ncc(C3CC3)cc2C#N)c(C)c1Cc1ccccc1 | inactive | 6.6
CCOc1nn(-c2ccc(C(F)(F)F)cn2)c(C)c1Cc1ccccc1 | inactive | 5.5
CCOc1nn(-c2ncc(C3CC3)cc2F)c(C)c1Cc1ccccc1 | inactive | 7
CCOc1nn(-c2ccc(C3CC3)nn2)c(C)c1Oc1cc(Cl)cc(Cl)c1 | inactive | 6.2
CCCc1cnc(-n2nc(OC(C)C)c(Oc3c(F)cccc3F)c2C)c(F)c1 | inactive | 6.7
COc1cc(C2CC2)cnc1-n1nc(OC(C)C)c(Oc2c(F)cccc2F)c1C | inactive | 7.5
Cc1c(Oc2cccc(F)c2F)c(OC(C)C)nn1-c1ccc(C2CC2)nn1 | inactive | 7.4
Cc1ccc(-n2nc(OC(C)C)c(Oc3c(F)cccc3F)c2C)nc1 | inactive | 7.6
CCc1ccc(-n2nc(OC(C)C)c(Oc3c(F)cccc3F)c2C)cn1 | inactive | –
CCOc1ccc(-n2nc(OC(C)C)c(Oc3c(F)cccc3F)c2C)nn1 | inactive | –
CCOc1nn(-c2ccc(C(C)=O)cn2)c(C)c1Cc1ccccc1 | inactive | <5
CCc1ccc(-n2nc(OC(C)C)c(Oc3c(F)cccc3F)c2C)nc1 | inactive | 7.1
CCOc1nn(-c2ccc(C3CC3)cn2)c(C)c1Oc1ccccc1Br | inactive | 7.8
Cc1c(Oc2c(F)cccc2F)c(OC(C)C)nn1-c1ccc(Br)cn1 | inactive | 6.3
Cc1c(Oc2cccc(F)c2)c(OC(C)C)nn1-c1ccc(C2CC2)nn1 | inactive | 6.4
CCOc1nn(-c2ccc(C3CC3)cn2)c(C)c1Oc1ccccc1C(F)(F)F | inactive | 7.3
CCOc1nn(-c2ccc(Br)cn2)c(C)c1Cc1ccccc1 | inactive | 5.3
COc1ccc(-n2nc(OC(C)C)c(Oc3c(F)cccc3F)c2C)cn1 | inactive | –
CCOc1nn(-c2ccc(C3CC3)cn2)c(C)c1Cc1ccccc1 | inactive | 7
CCOc1nn(-c2ccc(C3CC3)cn2)c(C)c1Oc1cc(Cl)ccc1Cl | inactive | 7.1
CCOc1nn(-c2ccc(C3CC3)cn2)c(C)c1Oc1cc(Cl)cc(Cl)c1 | inactive | 6.9
Cc1c(Oc2c(F)cccc2F)c(OC(C)C)nn1-c1cnc(C(C)(C)C)nc1 | inactive | –
CC(=O)c1ccc(-n2nc(OC(C)C)c(Oc3c(F)cccc3F)c2C)nc1 | inactive | 6.6
Cc1c(-c2ccc(-c3ccccc3F)cc2)nc2ccc(F)cc2c1C(=O)O | inactive | –
CCOc1nn(-c2cccc(C(F)(F)F)n2)c(C)c1Cc1ccccc1 | inactive | <5

SMILES | growth inhibition (GI) [1] | pMIC50 [2]
CCOc1nn(-c2ccc(C3CC3)nn2)c(C)c1Oc1ccccc1Br | inactive | 7.2
CCOc1nn(-c2ncc(Br)cc2F)c(C)c1Cc1ccccc1 | inactive | 5.9
CCOc1nn(-c2ccc(C3CC3)nn2)c(C)c1Oc1cccc(Cl)c1Cl | inactive | 7.4
CCOc1nn(-c2ccc(C3CC3)cn2)c(C)c1Oc1ccccc1F | inactive | 7.7
CCOc1nn(-c2ncccc2F)c(C)c1Cc1ccccc1 | inactive | 5.2
Cc1c(Oc2cc(F)ccc2F)c(OC(C)C)nn1-c1ccc(C2CC2)nn1 | inactive | 7
Cc1c(Oc2cccc(F)c2)c(OC(C)C)nn1-c1ccc(C2CC2)cn1 | inactive | 6.8
CCOc1nn(-c2ccc(C(C)(C)O)cn2)c(C)c1Cc1ccccc1 | inactive | 5.3
Cc1c(Oc2c(F)cccc2F)c(OC(C)C)nn1-c1cnc(Br)cn1 | inactive | 5.5
CCOc1nn(-c2ccc(C3CC3)cn2)c(C)c1Oc1cccc(C(F)(F)F)c1 | inactive | 7.1
CCOc1nn(-c2ccc(C(C)C)cn2)c(C)c1Cc1ccccc1 | inactive | 5.9
CCOc1nn(-c2ccc(C3CC3)nn2)c(C)c1Oc1cc(Cl)ccc1Cl | inactive | 6.9
Cc1c(Oc2ccc(F)cc2F)c(OC(C)C)nn1-c1ccc(C2CC2)nn1 | inactive | 6.4
Cc1c(Oc2ccc(F)cc2)c(OC(C)C)nn1-c1ccc(C2CC2)nn1 | inactive | 5.6
Cc1c(Oc2c(F)cccc2F)c(OC(C)C)nn1-c1ccc(C(C)(F)F)cn1 | inactive | 7.1
Cc1c(Oc2c(F)cccc2F)c(OC(C)C)nn1-c1ccc(Cl)nn1 | inactive | 6.8
Cc1c(Oc2c(F)cccc2F)c(OC(C)C)nn1-c1ncc(C2CC2)cc1C#N | inactive | 8.1
CCOc1nn(-c2ccc(C3CC3)cn2)c(C)c1Oc1ccccc1Cl | inactive | 7.9
Cc1cc(Br)cnc1-n1nc(OC(C)C)c(Oc2c(F)cccc2F)c1C | inactive | 5.9
CCOc1nn(-c2cccc(C)n2)c(C)c1Cc1ccccc1 | inactive | <5
CCOc1nn(-c2ccc(C3CC3)nn2)c(C)c1Oc1ccccc1F | inactive | 7.7
CCOc1nn(-c2ccc(C(=O)OC)cn2)c(C)c1Cc1ccccc1 | inactive | <5
Cc1c(Oc2c(F)cccc2F)c(OC(C)C)nn1-c1ccc(C(C)(C)O)cn1 | inactive | 6.7
CCOc1nn(-c2cccc(F)n2)c(C)c1Cc1ccccc1 | inactive | <5
CCOc1nn(-c2ccc(C3CC3)cn2)c(C)c1Oc1ccc(C(F)(F)F)cc1 | inactive | 5.3
CCn1cnc(-n2nc(OC(C)C)c(Oc3c(F)cccc3F)c2C)c1 | inactive | –
